Legend:
ApoE gene-deficient mice [1] = assay: Number of atherosclerotic lesions (plaques) in thoracic aorta of ApoE gene-deficient mice; format: in vivo; settings: oral once a day for 39 consecutive days; for Number of plaques formed in thoracic aorta: ApoE gene-deficient mice on high-cholesterol diet, 1 ml of 30 μg/ml per 25 g body weight, Oil red staining 40 days after start; for Effect on plaque formation (in words, versus negative sample): ApoE gene-deficient mice
Protocol: In addition, it is generally known that a primary lesion of arteriosclerosis is caused by oxidized LDL. Therefore, it is also possible to evaluate the action of reducing a risk of arteriosclerosis through inhibiting formation of a lipid peroxide of the test sample by counting the number of atherosclerotic lesions (plaques) in the artery of each model mouse treated with the test sample.
In Example 2, 3-O-β-D-glucopyranosyl-4-methylergost-7-en-3-ol was evaluated on the effect of reducing a risk of arteriosclerosis through the effect of inhibiting a lipid peroxide by counting the number of atherosclerotic lesions (plaques) in the artery using known arteriosclerosis model animals, ApoE gene-deficient mice.
A test sample, a control sample, and a negative sample were prepared in the same way as in Example 1 above and were each used for a test.
(§1) Six-week-old male ApoE gene-deficient mice (purchased from Japan SLC, Inc.) were preliminarily fed with a high-cholesterol diet (manufactured by Research Diets, Inc.) for 2 weeks and divided into groups each of 15 mice.
Each of the sample solutions including the test sample, control sample, and negative sample was separately administered orally once a day for 39 consecutive days using medical probes in an amount of 1 ml per 25 g of mouse body weight. Forty days after the start of administration, the thoracic aorta part was fixed with formalin and stained with Oil red, and the number of plaques was counted.
The test results of this example are shown in Tale 2.

ApoE gene-deficient mice [2] = format: in vivo; settings: for Amount of lipid peroxide in blood (MDA concentration (μM)): ApoE gene-deficient mice on high-cholesterol diet, oral, once a day, 30 μg per day, serum 14 days after start of administration, TBARS assay kit; for Effect of inhibiting formation of a lipid peroxide in blood (in words, versus negative sample): ApoE gene-deficient mice, oral 30 μg per day, 14 days after start of administration
Text: The actions of inhibiting formation of a lipid peroxide of various test samples including the antioxidant of the present invention can be evaluated by using, as an index, the amount of a thiobarbituric acid (TBA) reactive substance (TBARS), for example. Specifically, it may be defined that the larger the amount of the TBARS, the larger the amount of a lipid peroxide formed.
Examples of the TBARS include malondialdehyde (MDA) which reacts with TBA under high-temperature and acidic conditions and is a natural by-product of a lipid peroxidation. An MDA-TBA adduct can be detected by measurement of an absorbance at 530 to 540 nm to perform colorimetric measurement of MDA.
Also, the action of inhibiting formation of a lipid peroxide of a test sample can be evaluated using ApoE gene-deficient mice, which are often used as model animals which develop arteriosclerosis by hypercholesterolemia (hyper-LDL-cholesterolemia) (for example, see Reference Document 1: “Saibokogaku (Cell Engineering),” Extra Issue, “Medical Experiment Manual” series, Strategy for Study of Arteriosclerosis+Hyperlipidemia, Shujunsha Co., 1st edition, 1st impression, published on Apr. 1, 1996, pp. 441-443).
Further, in the model mice, the lipid peroxide level is higher than that of normal mice, and formation of atherosclerotic lesions (plagues) in the artery is observed with time. Therefore, the action of inhibiting formation of a lipid peroxide of a test sample can be evaluated by administering the test sample to the model mice and measuring a lipid peroxide in blood of the model mice.
Model animals which develop arteriosclerosis, ApoE gene-deficient mice, were used to examine the action of inhibiting formation of a lipid peroxide of 3-O-β-D-glucopyranosyl-4-methylergost-7-en-3-ol.
3-O-β-D-glucopyranosyl-4-methylergost-7-en-3-ol manufactured in Production Example 1 above was used as a test sample, and Mevalotin (DAIICHI SANKYO COMPANY, LIMITED), which is an HMG-CoA reductase inhibitor, was used as a control sample.
Those samples were separately dissolved in physiological saline so that the concentration of each compound was 30 μg/ml and were used for a test. Note that physiological saline was used as a negative sample.
as §1
To mice of each group, the solution including the test sample, control sample, or negative sample was separately administered orally once a day for 3 consecutive days using medical probes in an amount of 1 ml per 25 g of mouse body weight. […] Then, the amount of TBARS was measured using OxiSelect TBARS Assay Kit (manufactured by […]). […]

SMILES | Number of plaques formed in thoracic aorta (ApoE gene-deficient mice [1]) | Effect on plaque formation (in words, versus negative sample) (ApoE gene-deficient mice [1]) | Amount of lipid peroxide in blood (MDA concentration (μM)) (ApoE gene-deficient mice [2]) [µM] | Effect of inhibiting formation of a lipid peroxide in blood (in words, versus negative sample) (ApoE gene-deficient mice [2]) | Number of plaques formed in thoracic aorta (ApoE gene-deficient mice [1]; listed as test sample)
CC[C@H](C)C(=O)O[C@H]1C[C@H](O)C=C2C=C[C@H](C)[C@H](CC[C@@H](O)C[C@@H](O)CC(=O)[O-])[C@H]21.[Na+] [Control sample, reference compound] | 10.6 ± 3.2 | no significant difference although plaque formation was found to decrease | 0.93 ± 0.05 | a significant decrease in amount of a lipid peroxide in blood was not observed | –
CC1C(O[C@@H]2O[C@H](CO)[C@@H](O)[C@H](O)[C@H]2O)CC[C@@]2(C)C1CC=C1[C@@H]3CC[C@H]([C@H](C)CC[C@H](C)C(C)C)[C@@]3(C)CC[C@@H]12 (stereo partly drawn) [Test sample, 3-O-β-D-glucopyranosyl-4-methylergost-7-en-3-ol] | 5.8 ± 1.6 | had an effect of inhibiting plaque formation on the arterial endothelium | 0.51 ± 0.22 | the effect of inhibiting formation of a lipid peroxide in blood was clearly confirmed | 5.8
